From paper PMC7898037, “Improving mitochondria and ER stability helps eliminate upper motor neuron degeneration that occurs due to mSOD1 toxicity and TDP‐43 pathology” (Clinical and Translational Medicine, 2021)

Columns and labels:
hSOD1^G93A‐UeGFP mice = test: Rotarod test, hSOD1^G93A‐UeGFP mice; assay type: in vivo; parameters: Rotarod, Mean Diff. (vehicle minus NU-9) / Rotarod, mean difference GS vehicle vs. GS NU-9 (20) / Rotarod, mean difference GS vehicle vs. GS NU-9 (100): unit not given here; conditions: for Rotarod, group mean (Mean 1 / Mean 2 of 2way ANOVA multiple comparisons) / Rotarod, mean difference GS vehicle vs. GS NU-9 (20) / Rotarod, mean difference GS vehicle vs. GS NU-9 (100): GS (hSOD1G93A-UeGFP); for Rotarod, mean difference GS vehicle vs. GS NU-9 (20): vehicle minus NU-9 (20); for Rotarod, mean difference GS vehicle vs. GS NU-9 (100): vehicle minus NU-9 (100); for Rotarod, group mean (Mean 1 / Mean 2) / Rotarod, Mean Diff. (vehicle minus NU-9): hSOD1G93A-UeGFP mice; for Rotarod, Average: hSOD1G93A-UeGFP
Experimental: hSOD1^G93A‐UeGFP, prpTDP‐43^A315T‐UeGFP and WT‐UeGFP mice were weighed and the required NU‐9 dose per weight was calculated (20 or 100 mg/kg), which was administered once daily by oral gavage, starting at postnatal day (P)60 and continuing until P120. Animals from the untreated group received the vehicle (NMP and olive oil) only. For oral administration purposes, 20 ga × 38 mm plastic feeding tubes were used (Instech Laboratories, Inc). The gavage tip was inserted into the mouth directly over the tongue and into the pharynx. While observing the swallowing reflex, the tip was safely and smoothly slid into the esophagus. Once the administration was completed, the gavage tip was pulled straight out.
Behavior data were collected from hSOD1^G93A‐UeGFP and WT‐UeGFP mice (starting at P60 and every 7 days until P116) and from prpTDP‐43^A315T‐UeGFP mice (at P60, P90, and P120) with the following number of mice for each group: WT‐UeGFP vehicle (n = 10), hSOD1^G93A‐UeGFP vehicle (n = 6), WT‐UeGFP 20 mg/kg/day NU‐9 (n = 5), hSOD1^G93A‐UeGFP 20 mg/kg/day NU‐9 (n = 7), WT‐UeGFP 100 mg/kg/day NU‐9 (n = 11), hSOD1^G93A‐UeGFP 100 mg/kg/day NU‐9 (n = 9), prpTDP‐43^A315T‐UeGFP untreated (n ≥ 3), and prpTDP‐43^A315T‐UeGFP 100 mg/kg/day NU‐9 (n = 4) (Table S3).
Mice were placed on a rotating rod that accelerates linearly from 4 to 40 rpm (Rotarod, Ugo Basile), and the average time spent on the rotating rod for three consecutive trials was calculated for each mouse. Mice were allowed to run for a maximum of 5 min with a 5 min rest period between each run, and the latency to fall was recorded for three consecutive trials. The average of the three trials was taken as the data point for each mouse at the age tested, and the performance of different groups are reported as the mean ± SEM.

Caco‐2 = system: Caco‐2; parameters: method as in PMID 22189273, PMID 22837812; conditions: cited from earlier work
[1] = parameters: method as in PMID 22189273, PMID 22837812; conditions: cited from earlier work

## C[C@H](Oc1cc(C(F)(F)F)cc(C(F)(F)F)c1)C1CC(=O)CC(=O)C1 [NU‐9]
hSOD1^G93A‐UeGFP mice; NU-9 (20), P102
  Rotarod, group mean (Mean 1 / Mean 2 of 2way ANOVA multiple comparisons): 158.8
hSOD1^G93A‐UeGFP mice; NU-9 (20), P109
  Rotarod, group mean (Mean 1 / Mean 2 of 2way ANOVA multiple comparisons): 149.1
hSOD1^G93A‐UeGFP mice; NU-9 (20), P116
  Rotarod, group mean (Mean 1 / Mean 2 of 2way ANOVA multiple comparisons): 107.7
hSOD1^G93A‐UeGFP mice; NU-9 (100), P102
  Rotarod, group mean (Mean 1 / Mean 2 of 2way ANOVA multiple comparisons): 170
hSOD1^G93A‐UeGFP mice; NU-9 (100), P109
  Rotarod, group mean (Mean 1 / Mean 2 of 2way ANOVA multiple comparisons): 151.3
hSOD1^G93A‐UeGFP mice; NU-9 (100), P116
  Rotarod, group mean (Mean 1 / Mean 2 of 2way ANOVA multiple comparisons): 128.5
hSOD1^G93A‐UeGFP mice; P102
  Rotarod, mean difference GS vehicle vs. GS NU-9 (20): 22.8
  Rotarod, mean difference GS vehicle vs. GS NU-9 (100): 11.61
hSOD1^G93A‐UeGFP mice; P109
  Rotarod, mean difference GS vehicle vs. GS NU-9 (20): 18.74
  Rotarod, mean difference GS vehicle vs. GS NU-9 (100): 16.57
hSOD1^G93A‐UeGFP mice; P116
  Rotarod, mean difference GS vehicle vs. GS NU-9 (20): 14.44
  Rotarod, mean difference GS vehicle vs. GS NU-9 (100): -6.407
hSOD1^G93A‐UeGFP mice; NU-9 20 mg/kg/day, P60
  Rotarod, group mean (Mean 1 / Mean 2): 221.3
hSOD1^G93A‐UeGFP mice; NU-9 20 mg/kg/day, P67
  Rotarod, group mean (Mean 1 / Mean 2): 221.6
hSOD1^G93A‐UeGFP mice; NU-9 20 mg/kg/day, P74
  Rotarod, group mean (Mean 1 / Mean 2): 213.6
hSOD1^G93A‐UeGFP mice; NU-9 20 mg/kg/day, P81
  Rotarod, group mean (Mean 1 / Mean 2): 207.4
hSOD1^G93A‐UeGFP mice; NU-9 20 mg/kg/day, P88
  Rotarod, group mean (Mean 1 / Mean 2): 209.5
hSOD1^G93A‐UeGFP mice; NU-9 20 mg/kg/day, P95
  Rotarod, group mean (Mean 1 / Mean 2): 178.8
hSOD1^G93A‐UeGFP mice; NU-9 100 mg/kg/day, P60
  Rotarod, group mean (Mean 1 / Mean 2): 206.8
hSOD1^G93A‐UeGFP mice; NU-9 100 mg/kg/day, P67
  Rotarod, group mean (Mean 1 / Mean 2): 223.1
hSOD1^G93A‐UeGFP mice; NU-9 100 mg/kg/day, P74
  Rotarod, group mean (Mean 1 / Mean 2): 224
hSOD1^G93A‐UeGFP mice; NU-9 100 mg/kg/day, P81
  Rotarod, group mean (Mean 1 / Mean 2): 223.4
hSOD1^G93A‐UeGFP mice; NU-9 100 mg/kg/day, P88
  Rotarod, group mean (Mean 1 / Mean 2): 203.8
hSOD1^G93A‐UeGFP mice; NU-9 100 mg/kg/day, P95
  Rotarod, group mean (Mean 1 / Mean 2): 191
hSOD1^G93A‐UeGFP mice; vehicle vs. NU-9 20 mg/kg/day, P60
  Rotarod, Mean Diff. (vehicle minus NU-9): -28.22
hSOD1^G93A‐UeGFP mice; vehicle vs. NU-9 20 mg/kg/day, P67
  Rotarod, Mean Diff. (vehicle minus NU-9): 4.159
hSOD1^G93A‐UeGFP mice; vehicle vs. NU-9 20 mg/kg/day, P74
  Rotarod, Mean Diff. (vehicle minus NU-9): 4.103
hSOD1^G93A‐UeGFP mice; vehicle vs. NU-9 20 mg/kg/day, P81
  Rotarod, Mean Diff. (vehicle minus NU-9): -5.651
hSOD1^G93A‐UeGFP mice; vehicle vs. NU-9 20 mg/kg/day, P88
  Rotarod, Mean Diff. (vehicle minus NU-9): -17.41
hSOD1^G93A‐UeGFP mice; vehicle vs. NU-9 20 mg/kg/day, P95
  Rotarod, Mean Diff. (vehicle minus NU-9): 23.52
hSOD1^G93A‐UeGFP mice; vehicle vs. NU-9 20 mg/kg/day, P102
  Rotarod, Mean Diff. (vehicle minus NU-9): 22.8
hSOD1^G93A‐UeGFP mice; vehicle vs. NU-9 20 mg/kg/day, P109
  Rotarod, Mean Diff. (vehicle minus NU-9): 18.74
hSOD1^G93A‐UeGFP mice; vehicle vs. NU-9 20 mg/kg/day, P116
  Rotarod, Mean Diff. (vehicle minus NU-9): 14.44
hSOD1^G93A‐UeGFP mice; vehicle vs. NU-9 100 mg/kg/day, P60
  Rotarod, Mean Diff. (vehicle minus NU-9): -13.7
hSOD1^G93A‐UeGFP mice; vehicle vs. NU-9 100 mg/kg/day, P67
  Rotarod, Mean Diff. (vehicle minus NU-9): 2.704
hSOD1^G93A‐UeGFP mice; vehicle vs. NU-9 100 mg/kg/day, P74
  Rotarod, Mean Diff. (vehicle minus NU-9): -6.241
hSOD1^G93A‐UeGFP mice; vehicle vs. NU-9 100 mg/kg/day, P81
  Rotarod, Mean Diff. (vehicle minus NU-9): -21.67
hSOD1^G93A‐UeGFP mice; vehicle vs. NU-9 100 mg/kg/day, P88
  Rotarod, Mean Diff. (vehicle minus NU-9): -11.7
hSOD1^G93A‐UeGFP mice; vehicle vs. NU-9 100 mg/kg/day, P95
  Rotarod, Mean Diff. (vehicle minus NU-9): 11.37
hSOD1^G93A‐UeGFP mice; vehicle vs. NU-9 100 mg/kg/day, P102
  Rotarod, Mean Diff. (vehicle minus NU-9): 11.61
hSOD1^G93A‐UeGFP mice; vehicle vs. NU-9 100 mg/kg/day, P109
  Rotarod, Mean Diff. (vehicle minus NU-9): 16.57
hSOD1^G93A‐UeGFP mice; vehicle vs. NU-9 100 mg/kg/day, P116
  Rotarod, Mean Diff. (vehicle minus NU-9): -6.407
hSOD1^G93A‐UeGFP mice; NU-9 20 mg/kg/day po, P60
  Rotarod, Average: 221.333 s
hSOD1^G93A‐UeGFP mice; NU-9 20 mg/kg/day po, P67
  Rotarod, Average: 221.619 s
hSOD1^G93A‐UeGFP mice; NU-9 20 mg/kg/day po, P74
  Rotarod, Average: 213.619 s
hSOD1^G93A‐UeGFP mice; NU-9 20 mg/kg/day po, P81
  Rotarod, Average: 207.429 s
hSOD1^G93A‐UeGFP mice; NU-9 20 mg/kg/day po, P88
  Rotarod, Average: 209.524 s
hSOD1^G93A‐UeGFP mice; NU-9 20 mg/kg/day po, P95
  Rotarod, Average: 178.81 s
hSOD1^G93A‐UeGFP mice; NU-9 20 mg/kg/day po, P102
  Rotarod, Average: 158.81 s
hSOD1^G93A‐UeGFP mice; NU-9 20 mg/kg/day po, P109
  Rotarod, Average: 149.095 s
hSOD1^G93A‐UeGFP mice; NU-9 20 mg/kg/day po, P116
  Rotarod, Average: 107.667 s
hSOD1^G93A‐UeGFP mice; NU-9 100 mg/kg/day po, P60
  Rotarod, Average: 206.815 s
hSOD1^G93A‐UeGFP mice; NU-9 100 mg/kg/day po, P67
  Rotarod, Average: 223.074 s
hSOD1^G93A‐UeGFP mice; NU-9 100 mg/kg/day po, P74
  Rotarod, Average: 223.963 s
hSOD1^G93A‐UeGFP mice; NU-9 100 mg/kg/day po, P81
  Rotarod, Average: 223.444 s
hSOD1^G93A‐UeGFP mice; NU-9 100 mg/kg/day po, P88
  Rotarod, Average: 203.815 s
hSOD1^G93A‐UeGFP mice; NU-9 100 mg/kg/day po, P95
  Rotarod, Average: 190.963 s
hSOD1^G93A‐UeGFP mice; NU-9 100 mg/kg/day po, P102
  Rotarod, Average: 170 s
hSOD1^G93A‐UeGFP mice; NU-9 100 mg/kg/day po, P109
  Rotarod, Average: 151.259 s
hSOD1^G93A‐UeGFP mice; NU-9 100 mg/kg/day po, P116
  Rotarod, Average: 128.519 s
hSOD1^G93A‐UeGFP mice; hSOD1^G93A‐UeGFP mice, regardless of dose (20 or 100 mg/kg/day)
  rotarod performance: did not result in significant improvement
Caco‐2
  Caco‐2 A→B: 24.1 × 10^–6 cm/s
  Caco‐2 B→A: 1.5 × 10^–6 cm/s
  Caco‐2 Efflux ratio: 0.06
[1]
  PAMPA‐BBB P e: 8.11 × 10^–6 cm/s
  PAMPA‐BBB classification: CNS+
